Data on 56 compounds can be found in US7514448B2, “Azaindoles useful as inhibitors of rock and other protein kinases” (Vertex Pharmaceuticals Incorporated, priority 2004, dated 2009).

Assay [1] addresses ROCK I (AA 6-553) (Homo sapiens, UniProt Q13464). Briefly: ROCK inhibition assay, coupled enzyme system ("Enzyme"). The note with it: enzyme-linked assay; average Ki if more than one determined. Format: biochemical. On the procedure: Reactions were carried out in a solution containing 100 mM HEPES (pH 7.5), 10 mM MgCl2, 25 mM NaCl, 2 mM DTT and 1.5% DMSO.
If more than one value of Ki has been determined, the average Ki is indicated. If no value is indicated, then the Ki was not determined.

The target of assay [2] is PKA (Homo sapiens, UniProt P17612). Put plainly: PKA inhibition assay, coupled enzyme. It counts as biochemical. Particulars: average Ki if more than one determined. In outline: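 Coupled PK/LDH assay following NADH depletion: 18 nM PKA, 50 μM ATP, 80 μM Kemptide in 100 mM HEPES pH 7.5, 10 mM MgCl2, 25 mM NaCl, 1 mM DTT, 3% DMSO, at 30 °C. Compound preincubated 10 min before ATP start; initial rates over 15 min, IC50 and Ki by non-linear regression.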

ROCK I (AA 6-553), sequence (Q13464 6-553, species assumed): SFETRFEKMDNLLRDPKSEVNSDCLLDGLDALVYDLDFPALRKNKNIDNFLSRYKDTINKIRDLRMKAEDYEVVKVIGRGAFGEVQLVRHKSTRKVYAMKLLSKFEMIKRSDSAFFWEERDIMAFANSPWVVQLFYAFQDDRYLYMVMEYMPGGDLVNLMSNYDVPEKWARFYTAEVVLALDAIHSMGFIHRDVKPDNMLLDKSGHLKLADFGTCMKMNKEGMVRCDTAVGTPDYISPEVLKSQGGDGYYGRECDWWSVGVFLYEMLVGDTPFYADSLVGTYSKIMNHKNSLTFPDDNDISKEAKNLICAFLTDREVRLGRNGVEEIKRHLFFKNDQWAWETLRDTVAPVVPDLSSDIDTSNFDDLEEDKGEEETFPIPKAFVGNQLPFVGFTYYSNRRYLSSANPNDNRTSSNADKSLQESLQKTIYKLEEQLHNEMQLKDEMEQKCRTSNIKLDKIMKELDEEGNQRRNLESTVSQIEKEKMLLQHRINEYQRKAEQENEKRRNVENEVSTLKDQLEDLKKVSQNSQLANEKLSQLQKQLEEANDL

The Ki is a measure of affinity in units of concentration, obtained from inhibition or displacement. Low readings indicate tighter binding, high ones weaker binding. On to `CS(=O)(=O)Nc1cccc(CC(=O)Nc2csc(-c3c[nH]c4ncccc34)n2)c1` [II-46], for which the Ki in assay [1] and in assay [2] was less than 500 nM each time.
As for `CS(=O)(=O)Nc1ccc(CC(=O)Nc2nc(-c3c[nH]c4ncccc34)cs2)c(Cl)c1` [II-47], the Ki in assay [1] and in assay [2] was less than 500 nM each time.
As for `CC(C)S(=O)(=O)Nc1ccc(CC(=O)Nc2nc(-c3c[nH]c4ncccc34)cs2)c(Cl)c1` [II-48], the Ki in assay [1] and in assay [2] was less than 500 nM in each case.
Turning to `CN1CCCN(S(=O)(=O)c2cccc(CC(=O)Nc3nc(-c4c[nH]c5ncccc45)cs3)c2)CC1` [II-52], the inhibitory constant (Ki) in assay [1] and in assay [2] was less than 500 nM each time.
As for `COc1cccc(CC(=O)Nc2csc(-c3c[nH]c4ncccc34)n2)c1` [II-55], the Ki in assay [1] and in assay [2] was less than 500 nM each time.
Turning to `O=C(Cc1ccc(F)cc1F)Nc1csc(-c2c[nH]c3ncccc23)n1` [II-56], the Ki in assay [1] and in assay [2] was less than 500 nM throughout.
For the compound `O=C(Cc1cccc(S(=O)(=O)N2CCOCC2)c1)Nc1csc(-c2c[nH]c3ncccc23)n1` [II-57], the Ki was less than 500 nM in assay [1] and 500 to 5000 nM in assay [2].
For `O=C(Cc1cccc(S(=O)(=O)N2CCOCC2)c1)Nc1nnc(-c2c[nH]c3ncccc23)s1` [II-58], the Ki in assay [1] and in assay [2] was 500 to 5000 nM each time.
For `O=C(Cc1cccc(S(=O)(=O)N2CCOCC2)c1)Nc1cc(-c2c[nH]c3ncccc23)cs1` [II-59], the Ki in assay [1] and in assay [2] was less than 500 nM each time.
For `O=C(Cc1ccccc1F)Nc1csc(-c2c[nH]c3ncccc23)n1` [II-60], the Ki in assay [1] and in assay [2] was less than 500 nM each time.
Consider `O=C(Cc1ccc(F)cc1)Nc1csc(-c2c[nH]c3ncccc23)n1` [II-61], for which the Ki in assay [1] and in assay [2] was less than 500 nM in each case.
Take `O=C(Cc1ccccc1)Nc1csc(-c2c[nH]c3ncccc23)n1` [II-62]: the Ki in assay [1] and in assay [2] was less than 500 nM throughout.
For the compound `CCN(CC)S(=O)(=O)c1cccc(CC(=O)Nc2csc(-c3c[nH]c4ncccc34)n2)c1` [II-63], the Ki in assay [1] is less than 500 nM; in assay [2] it was 500 to 5000 nM.
Turning to `CCN(CC)S(=O)(=O)c1cccc(CC(=O)Nc2nnc(-c3c[nH]c4ncccc34)s2)c1` [II-64], the Ki in assay [1] and in assay [2] was 500 to 5000 nM each time.
In the case of `O=C(NCc1cccc(S(=O)(=O)N2CCOCC2)c1)c1ccc(-c2c[nH]c3ncccc23)s1` [II-65], the inhibition constant Ki in assay [1] and in assay [2] was less than 500 nM throughout.
As to `O=C(Cc1cccc(S(=O)(=O)N2CCOCC2)c1)Nc1nc(-c2c[nH]c3nccc(F)c23)cs1` [II-66], the results for the Ki in assay [1] and in assay [2] were less than 500 nM and 500 to 5000 nM, respectively.
Take `CCN(CC)S(=O)(=O)c1cccc(CC(=O)Nc2nc(-c3c[nH]c4nccc(F)c34)cs2)c1` [II-67]: the Ki in assay [1] is less than 500 nM; in assay [2], 500 to 5000 nM.
For `O=C(Cc1cccc(O)c1)N(c1nc(-c2c[nH]c3ncccc23)cs1)C1CC1` [II-68], in that order: less than 500 nM and less than 500 nM.
For `O=C(Cc1ccc2c(c1)OCO2)N(c1nc(-c2c[nH]c3ncccc23)cs1)C1CC1` [II-69], in that order: less than 500 nM and less than 500 nM.
With `COc1cccc(CC(=O)N(c2nc(-c3c[nH]c4ncccc34)cs2)C2CC2)c1` [II-70], the Ki in assay [1] and in assay [2] was less than 500 nM throughout.
Turning to `COc1cccc(CNC(=O)c2cc(-c3c[nH]c4ncccc34)cs2)c1` [II-71], the Ki in assay [1] and in assay [2] was less than 500 nM each time.
With `O=C(Cc1cccc(S(=O)(=O)NCC2CCCO2)c1)Nc1nc(-c2c[nH]c3ncccc23)cs1` (stereo not shown) [II-72], the Ki in assay [1] and in assay [2] was less than 500 nM in each case.
On to `CS(=O)(=O)c1ccc(CC(=O)N(c2nc(-c3c[nH]c4ncccc34)cs2)C2CC2)cc1` [II-73], for which the values for the Ki in assay [1] and in assay [2] were less than 500 nM and 500 to 5000 nM, respectively.
The like results for `CS(=O)(=O)c1ccc(CC(=O)Nc2nc(-c3c[nH]c4ncccc34)cs2)cc1` [II-74] were, in that order, less than 500 nM and 500 to 5000 nM.
The like results for `COc1ccc(CC(=O)N(c2nc(-c3c[nH]c4ncccc34)cs2)C2CC2)c(Cl)c1` [II-75] were, in that order, less than 500 nM and less than 500 nM.
For `O=C(Cc1cccc(OCCCC2CCNCC2)c1)N(c1nc(-c2c[nH]c3ncccc23)cs1)C1CC1` [II-76], in that order: less than 500 nM and 500 to 5000 nM.
Consider `COc1cccc(CC(=O)Nc2nc(-c3c[nH]c4ncc(Br)cc34)cs2)c1` [II-77], for which the values for the Ki in assay [1] and in assay [2] were less than 500 nM and 500 to 5000 nM, respectively.
The like results for `CS(=O)(=O)Nc1cccc(CC(=O)Nc2nc(-c3c[nH]c4ncc(Br)cc34)cs2)c1` [II-78] were, in that order, less than 500 nM and 500 to 5000 nM.
For `O=C(NCc1cccc(S(=O)(=O)N2CCOCC2)c1)c1cc(-c2c[nH]c3ncccc23)cs1` [II-80], in that order: less than 500 nM and 500 to 5000 nM.
For `O=C(Nc1csc(-c2c[nH]c3ncccc23)n1)c1ccccc1` [II-81], in that order: less than 500 nM and 500 to 5000 nM.
`CS(=O)(=O)Nc1ccc(F)c(CC(=O)Nc2nc(-c3c[nH]c4ncccc34)cs2)c1` [II-82]: the inhibition constant (Ki) in assay [1] and in assay [2] was less than 500 nM in each case.
Regarding `O=C(Cc1cccc(OCCCN2CCNCC2)c1)N(c1nc(-c2c[nH]c3ncccc23)cs1)C1CC1` [II-83], the Ki in assay [1] was less than 500 nM; in assay [2], 500 to 5000 nM.
For `CN1CCN(CCCOc2cccc(CC(=O)N(c3nc(-c4c[nH]c5ncccc45)cs3)C3CC3)c2)CC1` [II-84], in that order: less than 500 nM and 500 to 5000 nM.
The like results for `O=C(Cc1cccc(OCCN2CCNCC2)c1)N(c1nc(-c2c[nH]c3ncccc23)cs1)C1CC1` [II-85] were, in that order, less than 500 nM and less than 500 nM.
As to `CN1CCN(CCOc2cccc(CC(=O)N(c3nc(-c4c[nH]c5ncccc45)cs3)C3CC3)c2)CC1` [II-86], the values for the Ki in assay [1] and in assay [2] were less than 500 nM and 500 to 5000 nM, respectively.
For the compound `O=C(Cc1cccc(S(=O)(=O)N2CCOCC2)c1)N(c1nc(-c2c[nH]c3ncccc23)cs1)C1CC1` [II-87], the Ki in assay [1] and in assay [2] was less than 500 nM each time.
`O=C(Cc1cc2c(cc1Cl)OCO2)N(c1nc(-c2c[nH]c3ncccc23)cs1)C1CC1` [II-88]: the Ki in assay [1] and in assay [2] was less than 500 nM throughout.
Regarding `CC(C)N1CCN(S(=O)(=O)c2cccc(CC(=O)Nc3nc(-c4c[nH]c5ncccc45)cs3)c2)CC1` [II-89], the Ki in assay [1] was less than 500 nM; in assay [2], 500 to 5000 nM.
For `CN(C)CCN(C)S(=O)(=O)c1cccc(CC(=O)Nc2nc(-c3c[nH]c4ncccc34)cs2)c1` [II-90], in that order: less than 500 nM and less than 500 nM.
`O=C(Cc1ccccc1)Nc1nc(-c2c[nH]c3nccc(Cl)c23)cs1` [II-91]: the Ki in assay [1] and in assay [2] was less than 500 nM in each case.
For `COc1cccc(CC(=O)Nc2nc(-c3c[nH]c4nccc(Cl)c34)cs2)c1` [II-92], the Ki in assay [1] and in assay [2] was less than 500 nM in each case.
Turning to `CCN(CC)S(=O)(=O)c1cccc(CC(=O)Nc2nc(-c3c[nH]c4nccc(Cl)c34)cs2)c1` [II-93], the Ki in assay [1] and in assay [2] was 500 to 5000 nM each time.
For `CS(=O)(=O)Nc1cccc(CC(=O)Nc2nc(-c3c[nH]c4nccc(Cl)c34)cs2)c1` [II-94], the Ki in assay [1] and in assay [2] was less than 500 nM each time.
As for `O=C(Cc1cccc(OCCCC2CCNCC2)c1)Nc1nc(-c2c[nH]c3nccc(Cl)c23)cs1` [II-95], the Ki in assay [1] and in assay [2] was less than 500 nM throughout.
`COc1cccc(C2CCCN(c3nc(-c4c[nH]c5ncccc45)cs3)C2=O)c1` (stereo not shown) [II-96]: the Ki in assay [1] and in assay [2] was less than 500 nM each time.
`CN(C)CCNS(=O)(=O)c1cccc(CC(=O)Nc2nc(-c3c[nH]c4ncccc34)cs2)c1` [II-97]: the Ki in assay [1] and in assay [2] was less than 500 nM in each case.
With `Cc1sc(NC(=O)Cc2ccccc2)nc1-c1c[nH]c2ncccc12` [II-98], the values for the Ki in assay [1] and in assay [2] were less than 500 nM and 500 to 5000 nM, respectively.
In the case of `COc1cccc(CC(=O)Nc2nc(-c3c[nH]c4ncccc34)c(C)s2)c1` [II-99], the Ki in assay [1] was less than 500 nM; in assay [2] it was 500 to 5000 nM.
The like results for `Cc1sc(NC(=O)Cc2cccc(NS(C)(=O)=O)c2)nc1-c1c[nH]c2ncccc12` [II-100] were, in that order, less than 500 nM and 500 to 5000 nM.
For `Cc1sc(NC(=O)Cc2cccc(S(=O)(=O)N3CCOCC3)c2)nc1-c1c[nH]c2ncccc12` [II-101], in that order: 500 to 5000 nM and 500 to 5000 nM.
Take `O=C(Cc1ccccc1)Nc1nc(-c2c[nH]c3ncc(Cl)cc23)cs1` [II-102]: the Ki in assay [1] and in assay [2] was less than 500 nM throughout.
As to `COc1cccc(CC(=O)Nc2nc(-c3c[nH]c4ncc(Cl)cc34)cs2)c1` [II-103], the Ki in assay [1] and in assay [2] was less than 500 nM throughout.
Regarding `CS(=O)(=O)Nc1cccc(CC(=O)Nc2nc(-c3c[nH]c4ncc(Cl)cc34)cs2)c1` [II-104], the Ki in assay [1] is less than 500 nM; in assay [2], 500 to 5000 nM.
The like results for `O=C(Cc1cccc(S(=O)(=O)N2CCOCC2)c1)Nc1nc(-c2c[nH]c3ncc(Cl)cc23)cs1` [II-105] were, in that order, less than 500 nM and 500 to 5000 nM.
In the case of `CS(=O)(=O)Nc1cccc(CNC(=O)c2cc(-c3c[nH]c4ncccc34)cs2)c1` [II-106], the Ki in assay [1] and in assay [2] was less than 500 nM each time.
With `O=C(Cc1cccc(S(=O)(=O)N2CCOCC2)c1)Nc1nc(-c2c[nH]c3ncc(Br)cc23)cs1` [II-107], the Ki was less than 500 nM in assay [1] and 500 to 5000 nM in assay [2].
